ChEMBL document CHEMBL1201862, “PubChem BioAssay data set” (2004)
Values joined by “and” are separate entries in the source; they are usually repeats but may differ in a detail not shown here. Identical values can stand only once. Active and inactive are the calls of the source. Cut-off read from the data, not from the text of the source, for most assays here: actives have a measured EC50 and inactives only a lower limit.

How the values were obtained:
[1] = target: T1, Heat shock factor protein 1 (Mus musculus, UniProt P38532); assay: inhibition of MG132-induced HSE-luciferase signal, confirmation, cell-based, NIH3T3, luminescence, dose retest (AID 2382); assay type: functional;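 note: NIH3T3 fibroblasts with HSF1-driven luciferase reporter stressed by proteasome inhibitor MG132; luminescence from HSF1-driven luciferase expression after 8 hours of MG132 stress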
T1 sequence (P38532 whole entry): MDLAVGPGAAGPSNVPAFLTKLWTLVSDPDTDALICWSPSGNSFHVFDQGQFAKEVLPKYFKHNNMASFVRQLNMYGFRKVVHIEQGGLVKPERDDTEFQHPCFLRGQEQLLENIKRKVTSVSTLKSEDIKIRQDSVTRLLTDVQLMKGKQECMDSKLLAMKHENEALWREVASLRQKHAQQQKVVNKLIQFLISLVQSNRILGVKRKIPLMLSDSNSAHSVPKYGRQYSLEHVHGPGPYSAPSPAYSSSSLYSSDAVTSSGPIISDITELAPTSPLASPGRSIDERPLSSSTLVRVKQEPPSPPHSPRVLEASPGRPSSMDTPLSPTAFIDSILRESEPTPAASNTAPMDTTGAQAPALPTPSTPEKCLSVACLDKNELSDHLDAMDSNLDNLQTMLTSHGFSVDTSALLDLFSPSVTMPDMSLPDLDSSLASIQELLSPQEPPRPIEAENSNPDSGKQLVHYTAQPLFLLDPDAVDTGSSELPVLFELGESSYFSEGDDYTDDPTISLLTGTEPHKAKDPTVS

[2] = target: Cytochrome P450 2D6 (Homo sapiens, UniProt P10635);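 note: CYP2D6 member of a cytochrome P450 panel assay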
[3] = cytotoxicity toward NIH3T3 fibroblasts, dose response, counter-screen, cell-based, ATP luminescence, mouse fibroblasts (AID 2010); assay type: functional;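 note: cells exposed to compound for about 90 hours before reading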
[4] = inhibitors of intracellular T. cruzi replication, confirmation, NIH3T3 host cells, beta-gal luminescence (AID 2044); assay type: functional, cell-based;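 note: intracellular parasites grown in NIH/3T3 mouse fibroblasts as host cells; luminescent beta-galactosidase reporter signal from transgenic T. cruzi replicating inside host cells; inhibitors lower the luminescence signal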
[5] = target: Cytochrome P450 3A4 (Homo sapiens, UniProt P08684);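 note: CYP3A4 tested as one member of a cytochrome P450 panel screen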
[6] = tested on: Streptococcus sp. 'group A'; assay: growth inhibition of control SK(-) GAS strain, dose response, counter-screen for streptokinase expression inhibitor project, luminescence, kanamycin, BacTiterGlo, confirmation (AID 1900); assay type: functional, organism-based
[7] = tested on: Streptococcus; assay: Group A Streptococcus viability loss, dose response, counter-screen for streptokinase expression inhibitor project, luminescence, BacTiterGlo (AID 1915); assay type: functional, organism-based;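 note: potency for reduction of bacterial viability or growth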

Chain of Cytochrome P450 3A4 (P08684 whole entry): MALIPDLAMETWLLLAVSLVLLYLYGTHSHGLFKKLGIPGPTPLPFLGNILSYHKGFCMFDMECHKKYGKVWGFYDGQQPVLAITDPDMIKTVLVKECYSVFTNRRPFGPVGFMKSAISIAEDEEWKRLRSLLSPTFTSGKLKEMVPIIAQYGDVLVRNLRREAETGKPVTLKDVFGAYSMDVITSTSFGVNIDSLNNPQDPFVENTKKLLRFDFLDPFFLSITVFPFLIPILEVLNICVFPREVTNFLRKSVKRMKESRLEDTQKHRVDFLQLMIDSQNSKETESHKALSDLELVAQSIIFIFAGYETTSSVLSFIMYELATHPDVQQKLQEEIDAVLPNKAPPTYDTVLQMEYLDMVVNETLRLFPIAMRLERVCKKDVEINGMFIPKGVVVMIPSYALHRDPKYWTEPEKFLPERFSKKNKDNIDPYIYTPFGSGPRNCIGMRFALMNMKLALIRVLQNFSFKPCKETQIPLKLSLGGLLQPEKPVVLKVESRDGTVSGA
Chain of Cytochrome P450 2D6 (P10635 whole entry): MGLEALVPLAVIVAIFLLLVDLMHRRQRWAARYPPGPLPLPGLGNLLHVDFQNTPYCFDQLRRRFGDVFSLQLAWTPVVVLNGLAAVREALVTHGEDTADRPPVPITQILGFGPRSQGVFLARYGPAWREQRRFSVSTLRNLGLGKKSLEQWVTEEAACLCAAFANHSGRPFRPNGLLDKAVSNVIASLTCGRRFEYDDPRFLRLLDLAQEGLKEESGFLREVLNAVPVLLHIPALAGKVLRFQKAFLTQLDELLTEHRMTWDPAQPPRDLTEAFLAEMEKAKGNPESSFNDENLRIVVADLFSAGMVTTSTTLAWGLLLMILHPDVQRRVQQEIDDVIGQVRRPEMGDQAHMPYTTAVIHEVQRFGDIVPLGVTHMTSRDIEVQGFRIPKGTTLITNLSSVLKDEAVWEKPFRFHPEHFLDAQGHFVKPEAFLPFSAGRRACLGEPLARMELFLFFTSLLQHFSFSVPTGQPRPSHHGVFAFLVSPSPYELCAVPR

## CCOC(=O)c1cccc(NC(=O)CCS(=O)(=O)c2ccc(Br)s2)c1
[1]
  EC50: > 195 µM (not active)

## COC(=O)[C@@H]1c2cc3c(c(O)c2[C@@H](O)C[C@]1(C)O)C(=O)c1c(O)cc2c(c1C3=O)O[C@H]1O[C@@]2(C)[C@@H](O)[C@H](N(C)C)[C@H]1O
[2]
  AC50: 5.01 µM (inconclusive)

## COc1ccc(NC(=O)CCOc2ccccc2)cc1
[2]
  AC50: 22.4 µM (inconclusive)

## CCc1cccc2c(-c3ccccc3)c3c(nc12)OCC3
[2]
  AC50: 15.8 µM (inconclusive)

## Cc1ccc2[nH]c(SCc3nc(O)c4cnn(-c5ccccc5)c4n3)nc2c1
[2]
  AC50: 28.2 µM (inconclusive)

## CCOC(=O)C1(CCOc2ccccc2)CCN(Cc2cccc3c2OCO3)CC1
[3]
  EC50: > 60 µM (not active)
[4]
  EC50: 2.1 µM (active)

## O=C(CSC1=NCCN1)Nc1ccccc1
[5]
  AC50: 5.01 µM (inconclusive)

## COC1CCN(Cc2c(C(=O)N3CCN(C4CCCCC4)CC3)nc3ccccn23)CC1
[3]
  EC50: > 60 µM (not active)
[4]
  EC50: 1.63 µM (active)

## O=C(c1ccncc1)N1CCN(c2ccc(F)cc2)CC1
[1]
  EC50: > 195 µM (not active)

## Cc1cnc(CNc2ncncc2-c2ccccc2C)cn1
[2]
  AC50: 12.6 µM (inconclusive)

## COCC(=O)N1CCC2(CC1)CN(c1ccccn1)C2
[2]
  AC50: 20 µM (inconclusive)

## Cc1cc(C(F)(F)F)nc(SCc2ccc(C(=O)O)o2)n1
[1]
  EC50: > 195 µM (not active)

## Cc1ccc(C(=O)N/C(=C\c2ccc(Br)cc2)c2n[nH]c(S)n2)cc1
[2]
  AC50: 31.6 µM (inconclusive)
[1]
  EC50: > 195 µM (not active)

## CCOc1ccc(C(=O)c2ccc([N+](=O)[O-])cc2Cl)cc1
[3]
  EC50: > 30 µM (not active)
[4]
  EC50: 2.18 µM (active)

## CN1[C@@H]2CC[C@H]1CC(O[C@@H](c1ccccc1)c1ccc(Cl)cc1)C2 (stereo partly specified)
[5]
  AC50: 12.6 µM (inconclusive) and 15.8 µM (inconclusive)

## CN(C)c1ncc2nc(-c3ccc(F)cc3)c(=O)n(-c3ccccc3)c2n1
[2]
  AC50: 1.58 µM (inconclusive)

## C=CCN1CC[C@]23c4c5ccc(O)c4O[C@@H]2/C(=N/NC(=O)c2ccccc2)CC[C@@]3(O)[C@H]1C5
[2]
  AC50: 15.8 µM (inconclusive)
[5]
  AC50: 3.98 µM (inconclusive)

## O=C(N/N=C1/C[C@@H](O)[C@@H](O)[C@@H]2[C@H]3C(=O)N(c4ccc(F)cc4F)C(=O)[C@@H]3CC[C@H]12)OCc1ccccc1
[5]
  AC50: 3.98 µM (inconclusive)

## Fc1cccc(NC(=S)N2CCn3cccc3C2c2cccnc2)c1 (stereo unspecified)
[3]
  EC50: > 60 µM (not active)
[4]
  EC50: 0.885 µM (active)

## CCOC(=O)C1(Cc2ccccc2C(F)(F)F)CCN(C(C)CCn2cccn2)CC1 (stereo unspecified)
[3]
  EC50: > 60 µM (not active)
[4]
  EC50: 0.944 µM (active)

## O=C(c1ccc2c3c(cccc13)CC2)C1CCCN(Cc2cccnc2)C1 (stereo unspecified)
[3]
  EC50: > 60 µM (not active)
[4]
  EC50: 0.709 µM (active)

## O=S(=O)(Nc1ccc2oc(-c3ccccc3)nc2c1)c1ccccc1
[2]
  AC50: 25.1 µM (inconclusive)

## C/C(CCC(=O)OC[C@@H]1O[C@H](C#Cc2ccccc2)C=C[C@@H]1Oc1ccc(C)cc1)=N/OC[C@@H](C)[C@H](OCc1ccccc1)C(C)C
[5]
  AC50: 3.98 µM (inconclusive)

## O=[N+]([O-])c1nn(-c2ccc3c(c2)OCCO3)[n+]([O-])c1NCc1ccc(F)cc1
[3]
  EC50: > 60 µM (inconclusive)
[4]
  EC50: 0.595 µM (active)

## O=C(NCC1CCCO1)c1onc(CSc2ccc(Cl)cc2)c1C(=O)O (stereo unspecified)
[1]
  EC50: 9.58 µM (active)

## O=C(NC(=S)Nc1ccc2c(c1)OCO2)c1ccccc1
[2]
  AC50: 3.55 µM (inconclusive)

## CCCCCC(=O)N1CCCC(c2nc(-c3ccc(OC)cc3)no2)C1 (stereo unspecified)
[2]
  AC50: 15.8 µM (inconclusive)

## CCN1CCN(CCNC(=O)CCCCCn2c(=O)[nH]c3cc(C(=O)OC)ccc3c2=O)CC1
[1]
  EC50: > 195 µM (not active)

## COc1ccc(C(=O)N2CCC3(CCCN(Cc4ccccc4)C3)CC2)cc1
[5]
  AC50: 31.6 µM (inconclusive)

## CN(Cc1ccccc1)C(=O)c1ccccc1NC(=O)C1=CSCCO1
[1]
  EC50: > 195 µM (not active)

## CC(C)n1cc(CN2CCN(C)C(CCO)C2)c2ccccc21 (stereo unspecified)
[3]
  EC50: > 60 µM (not active)
[4]
  EC50: 0.109 µM (active)

## CNC[C@H](O)c1ccc(OC(=O)C(C)(C)C)c(OC(=O)C(C)(C)C)c1
[5]
  AC50: 10 µM (inconclusive)

## C=CCN(c1ccccc1)S(=O)(=O)c1cccc(C(=O)NC2CCN(Cc3ccccc3)CC2)c1
[3]
  EC50: 26.8 µM (active)
[4]
  EC50: 0.215 µM (active)

## CC(C)CNC(=O)C1CCN(Cc2ccc(OCc3ccccc3)cc2)CC1
[1]
  EC50: > 195 µM (not active)

## COc1cc(C(=O)NC2CCN(Cc3nnnn3Cc3cccs3)CC2)cc(OC)c1OC
[1]
  EC50: > 195 µM (not active)

## Cc1ccc(NC(=O)c2cc(NC(=O)c3ccco3)ccc2N2CCOCC2)cc1
[1]
  EC50: > 195 µM (not active)

## CCC(C)(NC(=O)c1ccccc1)C(=O)O (stereo unspecified)
[1]
  EC50: > 195 µM (not active)

## Cc1cc(C(F)F)nn1CC(=O)NC1C(=O)N2C(C(=O)O)=C(CSc3nnnn3C)CSC12 (stereo unspecified)
[6]
  EC50: 0.09 µM (active)
[7]
  EC50: 0.106 µM (active)

## Cc1c(-c2cccc(NC(=O)c3ccco3)c2)nc2ncccn12
[3]
  EC50: > 60 µM (not active)
[4]
  EC50: 1.78 µM (active)

## O=c1c(CCc2ccccc2)nc2cncnc2n1Cc1ccc(F)cc1
[2]
  AC50: 25.1 µM (inconclusive)

## COc1ccc(CN(C)CC(O)COc2ccc(-c3ccccc3)cc2)cc1OC (stereo unspecified)
[3]
  EC50: 21.7 µM (active)
[4]
  EC50: 0.447 µM (active)

## COc1ccc(NC(=O)c2cc3cc(OC)ccc3oc2=N)cc1
[1]
  EC50: > 195 µM (not active)

## Cc1cccc2nc(CNC(=O)CC3C(=O)NCCN3Cc3cccc(F)c3)cn12 (stereo unspecified)
[3]
  EC50: > 60 µM (not active)
[4]
  EC50: > 60 µM (not active)

## CCOC(=O)N1CCN(Cc2nc3c(c(=O)n(C)c(=O)n3C)n2Cc2ccccc2)CC1
[1]
  EC50: > 195 µM (not active)

## Cc1cccc(CNc2cc(-c3ccccc3Cl)ncn2)c1
[2]
  AC50: 39.8 µM (inconclusive)

## COc1ccc(OC)c2nc(O)c(CCNC(=O)c3ccc(S(=O)(=O)N4CCCC4)cc3)cc12
[2]
  AC50: 20 µM (inconclusive)

## C/C(N)=C(/C#N)C(=O)CSc1nc2scc(-c3ccc(F)cc3)c2c(=O)n1C
[6]
  EC50: 2 µM (active)
[7]
  EC50: 3.17 µM (active)

## CCCOc1ccc(CNC(=S)N/N=C/c2ccc([N+](=O)[O-])cc2)cc1
[3]
  EC50: > 60 µM (not active)
[4]
  EC50: 1.99 µM (active)

## Cc1ccc(C(=O)N/N=C\c2ccc([N+](=O)[O-])o2)cn1
[3]
  EC50: > 60 µM (not active)
[4]
  EC50: 0.238 µM (active)

## C/C(=N\NC(=O)CC1N=C(Cc2ccccc2)NNC1=O)c1ccc(Cl)cc1Cl (stereo unspecified)
[2]
  AC50: 15.8 µM (inconclusive)

## Clc1cc(/C=N\NC2=NCCN2)cc(Cl)n1
[3]
  EC50: > 60 µM (not active)
[4]
  EC50: 0.663 µM (active)

## CCO/C(O)=C1\C(C)=NC(=S)NC1c1ccsc1 (stereo unspecified)
[1]
  EC50: > 195 µM (not active)
